Experimental findings from ChEMBL document CHEMBL3632552, “Discovery of (phenoxy-2-hydroxypropyl)piperidines as a novel class of voltage-gated sodium channel 1.7 inhibitors” (Bioorg Med Chem Lett, 2015) are described below.

For series [1], the target named is Sodium channel protein type 1 subunit alpha (Homo sapiens, UniProt P35498). The experiment in a line: Inhibition of human NaV1.1 by IonWorks quattro automated electrophysiology assay. For orientation: The patch-clamp technique gives a direct electrical read-out from membranes.
The target of series [2] is Sodium channel protein type 5 subunit alpha (Homo sapiens, UniProt Q14524). Description: Inhibition of human NaV1.5 by IonWorks quattro automated electrophysiology assay.
In series [3] the target is Sodium channel protein type 9 subunit alpha (Mus musculus, UniProt Q62205). The experiment in a line: Inhibition of mouse NaV1.7 by IonWorks quattro automated electrophysiology assay.
Series [4] concerns the target Sodium channel protein type 9 subunit alpha (Homo sapiens, UniProt Q15858). Description: Inhibition of human NaV1.7 by IonWorks quattro automated electrophysiology assay.
Series [5] in a line: Tmax in CD mouse at 30 mg/kg, po. The format is ADME, organism-based. To be noted: in vivo.
The target in series [6] is Sodium channel protein type 1 subunit alpha (Mus musculus, UniProt A2APX8). Description: Inhibition of mouse NaV1.1 by IonWorks quattro automated electrophysiology assay.
A short description of series [7]: AUC in CD mouse at 30 mg/kg, po. The format is ADME, organism-based. As to conditions: in vivo.
The nature of series [8]: Cmax in CD mouse at 30 mg/kg, po. Set-up: dose 30 mg/kg, route oral. The format is ADME, organism-based. As to conditions: in vivo.
The nature of series [9]: Tmax in db/db mouse at 30 mg/kg, po. The class given is ADME, organism-based. As to conditions: in vivo.
The species entered for series [10] is Mus musculus. Description: Analgesic activity in mouse assessed as inhibition of acetic acid-induced writhing response. The class given is functional. In general terms: An intraperitoneal irritant provokes the stretching counted in writhing tests.
Series [11] relates to Mus musculus. Description: Toxicity in mouse assessed as reduction of locomotor activity at 100 mg/kg, po. The class given is organism-based. To be noted: in vivo.
Series [12] can be described thus: Cmax in db/db mouse at 30 mg/kg, po. Details: dose 30 mg/kg, route oral. As to conditions: in vivo. The class given is ADME, organism-based.
For another series, the system named is Plasma. Description: Fraction unbound in mouse plasma. The format is ADME, cell-free.
The nature of series [13]: AUC in db/db mouse at 30 mg/kg, po. The class given is ADME, organism-based. To be noted: in vivo.
The test system of series [14] is Mus musculus. The experiment in a line: Toxicity in po dosed mouse assessed as reduction of locomotor activity. The format is organism-based. To be noted: in vivo.
The nature of series [15]: Therapeutic index, ratio of toxic ID50 in mouse to analgesic activity ED50 in mouse. The format is organism-based. As to conditions: in vivo, read-out: TI.

Some results are limits rather than exact numbers.

Sodium channel protein type 9 subunit alpha (Mus musculus, UniProt Q62205), sequence (Q62205 whole entry): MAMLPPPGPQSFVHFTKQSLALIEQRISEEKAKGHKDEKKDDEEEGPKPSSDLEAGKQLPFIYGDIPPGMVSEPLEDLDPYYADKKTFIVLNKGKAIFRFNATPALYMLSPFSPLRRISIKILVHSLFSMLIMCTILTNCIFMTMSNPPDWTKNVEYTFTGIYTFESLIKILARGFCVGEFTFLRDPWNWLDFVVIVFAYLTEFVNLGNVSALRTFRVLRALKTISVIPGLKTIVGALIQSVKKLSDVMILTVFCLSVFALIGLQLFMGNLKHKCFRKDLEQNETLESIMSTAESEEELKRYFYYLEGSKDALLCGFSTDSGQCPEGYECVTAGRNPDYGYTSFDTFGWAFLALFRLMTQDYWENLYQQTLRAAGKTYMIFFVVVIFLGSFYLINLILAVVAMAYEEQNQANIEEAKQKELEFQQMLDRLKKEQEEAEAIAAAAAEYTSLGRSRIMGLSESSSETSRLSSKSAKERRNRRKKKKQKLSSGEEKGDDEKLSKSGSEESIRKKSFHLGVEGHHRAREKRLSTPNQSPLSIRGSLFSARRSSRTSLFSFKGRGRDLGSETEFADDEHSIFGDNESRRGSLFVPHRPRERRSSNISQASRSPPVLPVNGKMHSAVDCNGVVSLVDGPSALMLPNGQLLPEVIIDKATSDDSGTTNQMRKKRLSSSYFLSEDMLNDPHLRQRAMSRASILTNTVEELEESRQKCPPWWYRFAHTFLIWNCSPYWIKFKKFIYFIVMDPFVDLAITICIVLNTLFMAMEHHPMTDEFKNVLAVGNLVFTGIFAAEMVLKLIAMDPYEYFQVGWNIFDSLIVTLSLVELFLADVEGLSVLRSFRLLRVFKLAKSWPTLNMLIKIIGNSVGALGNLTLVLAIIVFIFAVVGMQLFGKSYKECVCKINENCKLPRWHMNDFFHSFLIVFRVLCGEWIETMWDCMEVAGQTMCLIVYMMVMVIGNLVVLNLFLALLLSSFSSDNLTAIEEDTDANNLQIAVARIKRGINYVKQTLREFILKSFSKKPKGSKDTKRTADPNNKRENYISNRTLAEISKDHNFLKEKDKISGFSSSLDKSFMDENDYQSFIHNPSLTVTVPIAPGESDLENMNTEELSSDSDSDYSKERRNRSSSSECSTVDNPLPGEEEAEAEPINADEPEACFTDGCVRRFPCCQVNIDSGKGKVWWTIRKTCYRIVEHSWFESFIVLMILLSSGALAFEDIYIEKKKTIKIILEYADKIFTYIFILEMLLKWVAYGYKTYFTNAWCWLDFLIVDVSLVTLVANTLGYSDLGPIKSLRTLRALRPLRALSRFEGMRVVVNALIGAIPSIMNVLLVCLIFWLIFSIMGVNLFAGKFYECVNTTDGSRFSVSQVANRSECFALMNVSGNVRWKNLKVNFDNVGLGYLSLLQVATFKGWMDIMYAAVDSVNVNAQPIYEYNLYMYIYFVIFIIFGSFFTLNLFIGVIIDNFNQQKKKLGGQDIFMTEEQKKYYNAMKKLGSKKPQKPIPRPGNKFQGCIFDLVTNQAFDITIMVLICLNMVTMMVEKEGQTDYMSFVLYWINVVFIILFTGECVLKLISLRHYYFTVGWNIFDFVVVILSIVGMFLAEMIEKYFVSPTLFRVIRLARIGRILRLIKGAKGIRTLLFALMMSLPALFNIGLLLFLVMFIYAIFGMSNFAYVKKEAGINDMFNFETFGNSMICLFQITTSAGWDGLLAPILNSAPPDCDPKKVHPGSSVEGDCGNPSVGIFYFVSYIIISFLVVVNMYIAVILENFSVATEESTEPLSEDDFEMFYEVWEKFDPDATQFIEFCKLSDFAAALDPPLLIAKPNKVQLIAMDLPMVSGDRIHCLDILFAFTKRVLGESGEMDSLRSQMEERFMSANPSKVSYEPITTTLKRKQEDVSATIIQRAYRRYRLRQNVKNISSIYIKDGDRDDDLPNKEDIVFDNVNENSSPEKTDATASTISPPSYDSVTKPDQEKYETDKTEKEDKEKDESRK
Sodium channel protein type 9 subunit alpha (Homo sapiens, UniProt Q15858), sequence (Q15858 whole entry): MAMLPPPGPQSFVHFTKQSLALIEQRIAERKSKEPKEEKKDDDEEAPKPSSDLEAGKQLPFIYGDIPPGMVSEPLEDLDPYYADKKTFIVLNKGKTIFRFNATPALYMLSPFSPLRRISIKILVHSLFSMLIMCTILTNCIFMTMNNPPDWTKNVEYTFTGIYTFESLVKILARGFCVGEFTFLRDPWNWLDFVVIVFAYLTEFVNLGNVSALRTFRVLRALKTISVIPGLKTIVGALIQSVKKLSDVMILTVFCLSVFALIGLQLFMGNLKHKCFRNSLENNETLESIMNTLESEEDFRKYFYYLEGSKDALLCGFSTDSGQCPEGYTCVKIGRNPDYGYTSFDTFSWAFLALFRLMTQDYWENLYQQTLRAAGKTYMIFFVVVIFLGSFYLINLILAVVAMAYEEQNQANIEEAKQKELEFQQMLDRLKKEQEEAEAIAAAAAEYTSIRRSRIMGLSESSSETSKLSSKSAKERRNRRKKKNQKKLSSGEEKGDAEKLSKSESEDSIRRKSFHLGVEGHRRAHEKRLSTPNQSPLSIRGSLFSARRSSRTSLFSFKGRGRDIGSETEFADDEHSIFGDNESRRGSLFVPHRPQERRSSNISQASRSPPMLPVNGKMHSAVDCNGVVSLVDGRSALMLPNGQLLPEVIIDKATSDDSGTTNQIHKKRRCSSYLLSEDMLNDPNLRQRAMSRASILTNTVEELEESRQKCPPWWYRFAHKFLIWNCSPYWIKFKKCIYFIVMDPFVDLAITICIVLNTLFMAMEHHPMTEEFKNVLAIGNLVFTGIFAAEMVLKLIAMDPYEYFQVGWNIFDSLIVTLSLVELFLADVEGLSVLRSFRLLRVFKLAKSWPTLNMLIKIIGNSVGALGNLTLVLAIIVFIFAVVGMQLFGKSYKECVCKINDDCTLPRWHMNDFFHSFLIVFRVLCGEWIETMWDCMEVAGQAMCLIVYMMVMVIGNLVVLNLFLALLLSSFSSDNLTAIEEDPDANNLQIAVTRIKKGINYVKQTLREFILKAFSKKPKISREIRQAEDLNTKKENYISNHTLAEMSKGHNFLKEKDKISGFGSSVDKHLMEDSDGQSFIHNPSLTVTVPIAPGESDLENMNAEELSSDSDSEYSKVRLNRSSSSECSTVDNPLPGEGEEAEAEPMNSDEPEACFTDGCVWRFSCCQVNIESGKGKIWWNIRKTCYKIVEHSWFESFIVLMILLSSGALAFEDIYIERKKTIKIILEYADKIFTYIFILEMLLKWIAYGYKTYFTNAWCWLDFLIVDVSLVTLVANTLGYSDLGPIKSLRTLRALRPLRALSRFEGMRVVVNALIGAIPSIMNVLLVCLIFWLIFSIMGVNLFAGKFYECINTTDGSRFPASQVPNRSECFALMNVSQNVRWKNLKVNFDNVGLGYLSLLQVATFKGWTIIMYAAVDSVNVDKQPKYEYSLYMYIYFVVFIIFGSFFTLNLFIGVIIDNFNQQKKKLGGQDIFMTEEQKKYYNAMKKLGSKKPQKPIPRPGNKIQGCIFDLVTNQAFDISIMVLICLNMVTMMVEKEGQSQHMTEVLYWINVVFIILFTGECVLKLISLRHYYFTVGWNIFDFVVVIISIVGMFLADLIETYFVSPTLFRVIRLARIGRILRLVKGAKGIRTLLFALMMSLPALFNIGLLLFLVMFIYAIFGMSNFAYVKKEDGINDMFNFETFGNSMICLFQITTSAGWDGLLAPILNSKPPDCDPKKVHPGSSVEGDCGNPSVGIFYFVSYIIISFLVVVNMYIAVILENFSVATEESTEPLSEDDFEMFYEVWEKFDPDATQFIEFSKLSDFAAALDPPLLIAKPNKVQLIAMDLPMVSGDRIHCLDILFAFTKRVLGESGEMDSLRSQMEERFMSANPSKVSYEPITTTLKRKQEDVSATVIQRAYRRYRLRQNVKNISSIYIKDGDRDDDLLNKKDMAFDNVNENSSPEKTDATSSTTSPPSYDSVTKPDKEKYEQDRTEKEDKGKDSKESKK

A word on the IC50: it is the concentration that gives 50% inhibition. Read a low IC50 as inhibition by little substance. `O=C1COc2c(cccc2C2CCN(CC(O)COc3ccccc3C(=O)c3ccccc3)CC2)N1` (stereo not given): the IC50 in series [1] came out at 4.4 µM; in series [2], 7 µM; in series [3], 2.1 µM; in [4] it was 0.78 µM.

For `O=C(NC1CCN(CC(O)COc2ccc(C(F)(F)F)cc2)CC1)c1ccccc1` (stereo not given), the IC50 in [1] was 0.8 µM; in series [2], 1.1 µM; in series [3], 0.4 µM; in series [4], 0.7 µM.

`O=C(c1ccccc1)c1ccccc1OCC(O)CN1CCC(N2C(=O)COc3ccccc32)CC1` (stereo not given): the IC50 in series [1] stood at 4.8 µM; in series [2] it was 5.2 µM; in [3], 1.3 µM; in series [4], 1.1 µM.

As to `O=C1c2ccccc2CN1C1CCN(CC(O)COc2ccccc2)CC1` (stereo not given), the IC50 in series [1] amounted to 8 µM; in series [2], 38 µM; in [3], 5 µM; in series [4] it was 3.4 µM.

As usually defined, the Tmax is the time at which the peak concentration occurs. As a reminder, the AUC is the area under the concentration-time curve, a measure of exposure. One may read the Cmax as the peak of the concentration-time curve. As for `O=C(c1ccccc1)c1ccccc1OCC(O)CN1CCC(N2Cc3ccccc3C2=O)CC1` (stereo not given), the Tmax in [5] is 30 min. Besides, the IC50 came out at 3.3 µM in series [1]; 3.1 µM in series [6]; 24 µM in series [2]; 1.2 µM in series [3]; 1.5 µM in series [4]. Further, the AUC in series [7] came to 18 ng·h/mL. The same molecule displayed a Cmax in [8] of 16 ng/mL.

As for `O=C1c2ccccc2CN1C1CCN(CC(O)COc2ccccc2C(F)(F)F)CC1` (stereo not given), the IC50 in series [1] turned out to be 4.5 µM; in series [2] it was 7.1 µM; in series [3], 4.8 µM; in series [4], 2.8 µM.

Turning to `O=C(NC1CCN(CC(O)COc2ccccc2C(=O)c2ccccc2)CC1)c1ccccc1` (stereo not given), the IC50 in series [1] stood at 3.2 µM; in series [2], 4.9 µM; in series [3] it was 0.92 µM; in series [4] it was 1.1 µM.

On to `COc1cc(C(F)(F)F)ccc1OCC(O)CN1CCC(N2Cc3ccccc3C2=O)CC1` (stereo not given), for which the IC50 in [1] was 0.91 µM; in [2] it was 5.6 µM; in series [3], 0.33 µM; in series [4] it was 0.48 µM.

In general, ED50 refers to the midpoint of the dose-response relation. Consider `COc1cc(C(F)(F)F)ccc1COCC(O)CN1CCC(N2Cc3ccccc3C2=O)CC1.O=C(O)/C=C/C(=O)O` (stereo not given), for which the IC50 in [1] is 1.5 µM; in series [6] it was 0.67 µM; in series [2], 6.1 µM; in series [3] it was 0.79 µM; in series [4], 1.2 µM. For the same molecule, the Tmax in series [9] amounted to 30 min. For the same molecule, in the series filed under Mus musculus [10], the ED50 is 10 mg/kg. The Activity entry with Mus musculus [11] was “Toxic”. Further, the concentration in [12] peaked (Cmax) at 445 ng/mL. The molecule also registered a Fu in the series on Plasma of 5.55%. In addition, the AUC in [13] stood at 1910 ng·h/mL.

Take `COc1cccc(OCC(O)CN2CCC(N3Cc4ccccc4C3=O)CC2)c1` (stereo not given): the IC50 in series [1] turned out to be 3 µM; in series [2], 10 µM; in [3], 0.91 µM; in series [4], 1.4 µM.

As for `O=C(c1ccccc1)c1ccccc1OCC(O)CN1CCC(n2c(=O)oc3ccccc32)CC1` (stereo not given), the 50% inhibitory concentration (IC50) is 5.4 µM in series [1], 3.4 µM in series [2], 3.1 µM in series [3] and 1.8 µM in series [4].

As for `Cc1cccc(C)c1OCC(C)N.Cl` (stereo not given) [MEXILETINE HYDROCHLORIDE], the IC50 in series [1] worked out at 11 µM; in series [6] it was 21 µM; in series [3], 11 µM. For the same molecule, the ED50 in the series filed under Mus musculus [10] amounted to 21 mg/kg. Besides, in the series with Mus musculus [14], the ID50 was determined as 45 mg/kg.

As to `O=C1CCc2c(cccc2N2CCN(CC(O)COc3ccccc3C(=O)c3ccccc3)CC2)N1` (stereo not given), the IC50 in [1] was determined as 21 µM; in [2], 17 µM; in series [3], 2.4 µM; in [4], 3.7 µM.

For `O=C(c1ccccc1)c1ccccc1OCC(O)CN1CCC(C(=O)Nc2ccccc2)CC1` (stereo not given), the IC50 in [1] was 4.3 µM; in [2], 1.9 µM; in [3], 1 µM; in series [4], 1.2 µM.

On to `O=C1c2ccccc2CN1C1CCN(CC(O)COCc2ccc(C(F)(F)F)cc2)CC1` (stereo not given), for which the IC50 is 3 µM in [1], 3 µM in series [2], 1.5 µM in [3] and 1.1 µM in [4].

For `COc1cc(C(F)(F)F)ccc1COCC(O)CN1CCC(C(=O)Nc2ccccc2)CC1` (stereo not given), the selectivity ratio in series [15] worked out at 5.8. Also, the IC50 in series [1] was 3.3 µM; in [6], 2.4 µM; in series [2], 16 µM; in [3], 1.3 µM; in series [4] it was 1.7 µM. In [9], the Tmax is 30 min. Moreover, the ED50 in the series listed under Mus musculus [10] was 19 mg/kg. The same molecule showed a Cmax in series [12] of 161 ng/mL. In the series with Plasma, the Fu is 4.18%. In the series on Mus musculus [14], the ID50 was 111 mg/kg. The same molecule had an AUC in [13] of 303 ng·h/mL.

With `O=C(c1ccccc1)c1ccccc1OCC(O)CN1CCN(c2cccc3[nH]c(=O)oc23)CC1` (stereo not given), the IC50 in [1] is above 33 µM; in series [2] it was above 33 µM; in series [3], 31 µM; in series [4], 24 µM.

As to `O=C(c1ccccc1)c1cccc(OCC(O)CN2CCC(N3Cc4ccccc4C3=O)CC2)c1` (stereo not given), the Tmax in series [5] was determined as 30 min. Besides, the IC50 was found to be 0.92 µM in [1]; 0.69 µM in series [6]; 3.7 µM in series [2]; 0.96 µM in series [3]; 0.9 µM in series [4]. The molecule also registered an AUC in [7] of 525 ng·h/mL. The Fu with Plasma was 1.99%. Further, in series [8], the concentration peaked (Cmax) at 169 ng/mL.

In the case of `COc1ccccc1OCC(O)CN1CCC(N2Cc3ccccc3C2=O)CC1` (stereo not given), the Tmax in [5] is 30 min. In [15], the selectivity ratio worked out at 2.9. Besides, the IC50 amounted to 19 µM in [1]; 34 µM in series [6]; 77 µM in [2]; 4.8 µM in series [3]; 5.3 µM in series [4]. Moreover, in the series filed under Mus musculus [10], the ED50 amounted to 7 mg/kg. Besides, the AUC in series [7] came to 692 ng·h/mL. The ID50 with Mus musculus [14] was determined as 20 mg/kg. In addition, the Cmax in series [8] worked out at 467 ng/mL.

In the case of `O=C(Nc1ccccc1)C1CCN(CC(O)COc2ccc(C(F)(F)F)cc2)CC1` (stereo not given), the IC50 in [1] came out at 3.1 µM; in series [2], 3.4 µM; in series [3], 0.8 µM; in series [4], 1 µM.

Consider `O=C(c1ccccc1)c1ccc(OCC(O)CN2CCC(N3Cc4ccccc4C3=O)CC2)cc1` (stereo not given), for which the IC50 worked out at 0.67 µM in series [1], 1.2 µM in series [2], 0.59 µM in [3] and 0.38 µM in series [4].

In the case of `O=C1CCc2c(cccc2C2CCN(CC(O)COc3ccccc3C(=O)c3ccccc3)CC2)N1` (stereo not given), the IC50 in series [1] amounted to 7.1 µM; in series [2], 18 µM; in [3], 16 µM; in series [4], 1.3 µM.

For the molecule `O=C1c2ccccc2CN1C1CCN(CC(O)COc2ccc(C(F)(F)F)cc2)CC1` (stereo not given), the IC50 stood at 1.8 µM in series [1], 2.8 µM in [2], 0.1 µM in series [3] and 0.5 µM in series [4].

Take `O=C1COc2c(cccc2N2CCN(CC(O)COc3ccccc3C(=O)c3ccccc3)CC2)N1` (stereo not given): the IC50 in series [1] was above 33 µM; in [2], 20 µM; in [3], 5 µM; in series [4] it was 3.9 µM.

`O=C(c1ccccc1)c1ccccc1OCC(O)CN1CCC(N2C(=O)Cc3ccccc32)CC1` (stereo not given): the IC50 in series [1] stood at 26 µM; in series [2], 33 µM; in series [3], 5 µM; in series [4], 9.4 µM.

In the case of `O=C1c2ccccc2CN1C1CCN(CC(O)COc2cccc(C(F)(F)F)c2)CC1` (stereo not given), the IC50 came out at 1.2 µM in [1], 4.4 µM in [2], 0.79 µM in series [3] and 1 µM in [4].

Turning to `COc1ccc(OCC(O)CN2CCC(N3Cc4ccccc4C3=O)CC2)cc1` (stereo not given), the IC50 in series [1] worked out at 2.7 µM; in series [2] it was 13 µM; in series [3], 1.3 µM; in series [4], 1.8 µM.
